According to patent US9949979B2, “Use of inhibitors of the activity or function of PI3K” (NOVARTIS AG, priority 2011, dated 2018):

Legend:
PI3K delta = PI3K delta (Homo sapiens, UniProt O00329); assay: Enzymatic PI3K delta isoform inhibition (lipid kinase activity, Kinase-Glo); format: biochemical; parameters: for the full-length p110-d subunit are generated and fused by overlapping PCR; His tag (C); made in house; host or cells: baculovirus; Tn5 (Trichoplusia ni) or TiniPro insect cells; settings: Enzymatic Assay
Sequence of PI3K delta (O00329 with tags, fused parts or gaps limits assumed): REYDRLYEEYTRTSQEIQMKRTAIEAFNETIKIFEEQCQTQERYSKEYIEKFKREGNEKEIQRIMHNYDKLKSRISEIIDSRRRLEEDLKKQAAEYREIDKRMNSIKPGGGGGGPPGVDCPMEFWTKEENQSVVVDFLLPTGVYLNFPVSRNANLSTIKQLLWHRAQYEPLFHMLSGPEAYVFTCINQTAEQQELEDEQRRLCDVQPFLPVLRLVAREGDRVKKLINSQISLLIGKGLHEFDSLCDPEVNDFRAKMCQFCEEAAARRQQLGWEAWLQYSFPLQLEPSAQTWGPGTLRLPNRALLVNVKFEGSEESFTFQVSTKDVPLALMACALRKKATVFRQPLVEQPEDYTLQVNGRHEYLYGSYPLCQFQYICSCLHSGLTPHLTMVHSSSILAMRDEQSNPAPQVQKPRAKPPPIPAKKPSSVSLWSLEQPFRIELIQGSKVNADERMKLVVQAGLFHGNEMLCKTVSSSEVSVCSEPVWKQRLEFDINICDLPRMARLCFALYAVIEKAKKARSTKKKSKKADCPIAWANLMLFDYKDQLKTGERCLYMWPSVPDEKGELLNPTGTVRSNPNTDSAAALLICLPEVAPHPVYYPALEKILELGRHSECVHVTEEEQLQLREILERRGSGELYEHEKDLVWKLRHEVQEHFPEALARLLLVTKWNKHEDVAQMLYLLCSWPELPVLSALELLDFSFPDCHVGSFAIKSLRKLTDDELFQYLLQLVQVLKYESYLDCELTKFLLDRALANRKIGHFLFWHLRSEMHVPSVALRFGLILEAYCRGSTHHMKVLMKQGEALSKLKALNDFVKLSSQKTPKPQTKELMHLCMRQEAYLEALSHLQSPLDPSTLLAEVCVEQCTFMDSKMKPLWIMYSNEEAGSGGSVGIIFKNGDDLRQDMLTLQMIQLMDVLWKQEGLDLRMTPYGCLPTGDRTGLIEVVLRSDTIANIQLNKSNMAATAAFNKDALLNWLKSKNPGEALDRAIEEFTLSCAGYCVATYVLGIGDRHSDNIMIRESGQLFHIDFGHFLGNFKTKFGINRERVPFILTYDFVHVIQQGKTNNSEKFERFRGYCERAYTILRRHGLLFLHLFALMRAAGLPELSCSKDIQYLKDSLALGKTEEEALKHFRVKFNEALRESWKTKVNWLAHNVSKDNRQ
Experimental: (§1) 1 Determination of Enzymatic PI3K Alpha and PI3K Delta Isoform Inhibition
(§2) 1.1 Test of Lipid Kinase Activity
(§3) The kinase reaction is performed in a final volume of 50 μl per well of a half area COSTAR, 96 well plate. The final concentrations of ATP and phosphatidyl inositol in the assay are 5 μM and 6 μg/mL, respectively. The reaction is started by the addition of PI3 kinase, e.g. PI3 kinase δ.
(§4) p110δ. The components of the assay are added per well as follows: • 10 μl test compound in 5% DMSO per well in […]. • Total activity is determined by addition 10 μl of 5% vol/vol DMSO in the first 4 wells of column 1 and the last 4 wells of column 12. • The background is determined by addition of 10 μM control compound to the last 4 wells of column 1 and the first 4 wells of column 12. • 2 mL ‘Assay mix’ are prepared per plate: • 1.912 mL of HEPES assay buffer • 8.33 μl of 3 mM stock of ATP giving a final concentration of 5 μM per well • 1 μl of [^33P]ATP on the activity date giving 0.05 μCi per well • 30 μl of 1 mg/mL PI stock giving a final concentration of 6 μg/mL per well • 5 μl of 1 M stock MgCl2 giving a final concentration of 1 mM per well • 20 μl of the assay mix are added per well. • 2 mL ‘Enzyme mix’ are prepared per plate (x* μl PI3 kinase p110β in 2 mL of kinase buffer). The ‘Enzyme mix’ is kept on ice during addition to the assay plates. The volume of enzyme is dependent on the enzymatic activity of the batch in use. • 20 μl ‘Enzyme mix’ are added/well to start the reaction. • The plate is then incubated at room temperature for 90 minutes. • The reaction is terminated by the addition of 50 μl WGA-SPA bead (wheat germ agglutinin-coated Scintillation Proximity Assay beads) suspension per well. • The assay plate is sealed using TopSeal-S (heat seal for polystyrene microplates, PerkinElmer LAS [Deutschland] GmbH, Rodgau, Germany) and incubated at room temperature for at least 60 minutes. • The assay plate is then centrifuged at 1500 rpm for 2 minutes using the Jouan bench top centrifuge (Jouan Inc., Nantes, France). • The assay plate is counted using a Packard TopCount, each well being counted for 20 seconds.
(§5) The final concentrations of ATP and phosphatidyl inositol (PI) in the assay are 1 μM and 10 μg/mL, respectively. The reaction is started by the addition of ATP.
(§6) The components of the assay are added per well as follows:
(§7) IC50 is determined by a four parameter curve fitting routine that comes along with “excel fit”.
(§8) To start the reaction, 10 μl of 10 nM PI3 kinase and 5 μg/mL 1-alpha-phosphatidylinositol (PI) are added into each well followed by 10 μl of 2 μM ATP. The reaction is performed until approx 50% of the ATP is depleted, and then stopped by the addition of 20 μl of Kinase-Glo solution (Promega Corp., Madison, Wis., USA). The stopped reaction is incubated for 5 minutes and the remaining ATP is then detected via luminescence. IC50 values are then determined.

PI3K alpha = molecular target: T1, PI3K alpha (Homo sapiens, UniProt P42336); assay: Enzymatic PI3K alpha isoform inhibition (lipid kinase activity, Kinase-Glo); format: biochemical; settings: Enzymatic Assay
T1 construct: His tag (C); made in house; host or cells: baculovirus; Tn5 (Trichoplusia ni) or TiniPro insect cells
T1 sequence (P42336 with tags, fused parts or gaps limits assumed): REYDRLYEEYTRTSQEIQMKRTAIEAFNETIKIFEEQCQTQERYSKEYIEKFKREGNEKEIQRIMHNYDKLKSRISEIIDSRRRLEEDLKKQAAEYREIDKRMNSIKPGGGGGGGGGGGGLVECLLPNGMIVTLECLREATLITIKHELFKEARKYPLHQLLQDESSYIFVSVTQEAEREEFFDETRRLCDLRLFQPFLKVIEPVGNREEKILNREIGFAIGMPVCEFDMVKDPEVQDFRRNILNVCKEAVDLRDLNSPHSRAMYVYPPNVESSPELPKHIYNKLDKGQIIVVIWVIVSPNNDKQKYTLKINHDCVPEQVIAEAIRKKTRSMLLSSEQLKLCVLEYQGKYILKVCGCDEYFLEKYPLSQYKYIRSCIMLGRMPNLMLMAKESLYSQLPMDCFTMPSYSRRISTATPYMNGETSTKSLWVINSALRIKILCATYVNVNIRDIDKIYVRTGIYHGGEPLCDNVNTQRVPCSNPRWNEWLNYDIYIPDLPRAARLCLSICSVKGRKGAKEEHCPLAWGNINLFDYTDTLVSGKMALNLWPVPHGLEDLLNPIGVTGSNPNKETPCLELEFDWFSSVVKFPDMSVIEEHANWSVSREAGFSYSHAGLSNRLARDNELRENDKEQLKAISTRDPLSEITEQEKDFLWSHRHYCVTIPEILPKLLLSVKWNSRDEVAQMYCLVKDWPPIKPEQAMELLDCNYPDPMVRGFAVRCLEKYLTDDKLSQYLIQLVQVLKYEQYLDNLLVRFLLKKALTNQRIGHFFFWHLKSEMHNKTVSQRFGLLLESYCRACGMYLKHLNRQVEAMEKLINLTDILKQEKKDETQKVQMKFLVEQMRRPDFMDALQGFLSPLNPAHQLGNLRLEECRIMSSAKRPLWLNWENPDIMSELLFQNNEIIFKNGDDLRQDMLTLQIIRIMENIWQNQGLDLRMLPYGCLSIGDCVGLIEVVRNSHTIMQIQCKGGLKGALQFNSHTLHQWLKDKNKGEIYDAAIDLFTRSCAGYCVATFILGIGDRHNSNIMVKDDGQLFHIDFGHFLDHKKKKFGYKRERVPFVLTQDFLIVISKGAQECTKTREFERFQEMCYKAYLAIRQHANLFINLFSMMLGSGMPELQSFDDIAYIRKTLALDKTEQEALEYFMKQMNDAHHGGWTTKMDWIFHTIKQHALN
Experimental: as §1, §2, §3, §4, §5, §6, §7, §8

TLR9 [1] = assay: TLR9-induced IFNalpha in isolated human pDCs (CpG2216, AlphaLISA); format: cell-based; settings: read-out: TLR9-ligand induced IFNα in human pDCs IC50
Experimental: (§9) 2.4 Determination of TLR9-Induced IFNalpha in Human Peripheral Blood Mononuclear Cells (PBMCs) and Isolated Plasmacytoid Dendritic Cells (pDCs)
Human PBMCs were prepared using Buffy Coats as source material from healthy donations (approx. 50 ml obtained from Blutspendezentrum SRK Basel) and processed as indicated above. […]
(§10) Compounds were pre-diluted in 100% v/v DMSO (#41640-100 mL; Sigma-Aldrich), followed by transfer in Media (to achieve a final DMSO concentration of 0.25%). […] Plates were briefly centrifuged (200×g for 2 min at 22° C.) and supernatant samples (30 μl) removed for quantification of IFNα levels.
For quantification of IFNalpha the human interferon AlphaLISA Kit (#AL264F) from PerkinElmer was used. […] After incubation, the plates were read with an EnVision™ multiplate reader equipped with the ALPHA option using the instrument's own “AlphaScreen standard settings” (e.g. total measurement time: 550 ms, Laser 680 nm excitation time: 180 ms, mirror: D640 as, emission filter: M570w, center wavelength 570 nm, bandwidth 100 nm, transmittance 75%). Data were collected for analysis and quantification of IFNα levels.
Data were analysed using Excel XL fit 4.0 (Microsoft) with XLfit add-in (IDBS; version 4.3.2). Specific IFNα concentrations were determined following extrapolation to standard curves using human IFNα B (2b). […]

TLR9 [2] = assay: TLR9-induced IL-6 in murine splenocytes (CpG1826, ELISA); format: cell-based, C57BL/6 mice; settings: Mus musculus, Splenocyte; read-out: TLR9-ligand induced IL-6 in murine splenocytes IC50
Experimental: 2.2 Determination of TLR9-Induced IL-6 in Murine Splenocytes
Spleens were dissected from C57BL/6 mice immediately following euthanasia. Excess fat was trimmed from the spleens prior to mashing the spleen through a […] cell strainer using a plunger from a 5 ml syringe. A single cell suspension was prepared and the volume was adjusted to 15 ml in a 50 ml Falcon tube using cold PBS. Cells were centrifuged at 1500 rpm for 5 minutes at 4° C. degrees prior to removal of supernatant and re-suspension in 5 ml of red blood cell lysis buffer per spleen and incubation for 5 minutes at room temperature. Ice cold PBS (30 ml) was added to the cells prior to centrifugation at 1500 rpm for 5 minutes at 4° C. The supernatant was removed and the cells were washed twice with 40 ml of murine splenocyte culture media (MSCM). […] Cells were re-suspended in 10-20 ml of MSCM and counted using a Countess cell counter. […]
After overnight culture, cells were transferred to 96-well V-bottomed plates and centrifuged at 2000 rpm for 5 minutes at room temperature. Subsequently 150 μl of each culture supernatant was transferred to 96-well flat-bottomed plates and […] were measured using commercially available mouse IL-6 sandwich ELISA kit (R&D systems). […] IL-6 levels were measured using a SpectraMax 190 Plate Reader (450 nm) and analyzed using SoftMax Pro and GraphPad Prism software.

TLR9 [3] = assay: TLR9-induced IFNalpha in human PBMC (CpG2216, AlphaLISA); format: cell-based; settings: read-out: TLR9-ligand induced IFNα in human PBMC IC50
Experimental: as §9
Human blood (ca. 75 ml) was collected in 10 S-Monovette tubes containing Heparin (S-Monovette 7.5 mL NH Heparin 16 IU/mL blood; Starstedt). Leucosep™ tubes (30 mL #227290; Greiner Bio-one) were prepared by addition of 15 ml lymphocyte separation medium LSM1077™ per tube (#J15-004; PAA Laboratories) and centrifugation for 30 sec at 1000 g. Some 25 ml blood was transferred to Leucosep™ tubes following dilution with equal parts of PBS (without Ca2+/Mg2+; #14190-094). […] The PBMC were counted using a Countess® Automated cell counter (sample was pre-diluted 1:10 in Media, prior to the addition of equal volume (10 μl) of Trypan Blue). […]
as §10
For quantification of IFNalpha the human interferon AlphaLISA Kit (#AL264F) from PerkinElmer was used. […] Data were collected for analysis and quantification of IFNα levels.
Data were analysed using Excel XL fit 4.0 (Microsoft) with XLfit add-in (IDBS; version 4.3.2). […]

Row | SMILES | IC50 (PI3K delta) [nM] | IC50 (PI3K alpha) [nM] | IC50 (TLR9 [1]) [nM] | IC50 (TLR9 [2]) [nM] | IC50 (TLR9 [3]) [nM]
1 | Cc1ccc(-c2ccc3ncnc(-c4cccc(C(=O)N5CCN(C)CC5)c4)c3c2)cn1 [19′] | 11.5 | 678 |  |  | 
2 | COc1ccc(-c2ccc3ncnc(-c4cccc(C(=O)N5CCNC(C)(C)C5)c4)c3c2)cn1 [88′] | ≤ 2.67 |  |  |  | 
3 | COc1ncc(N2CCc3ncnc(O[C@H]4CCN(C(=O)C5CCOCC5)C4)c3C2)cc1C [Example 1, {(S)-3-[6-(6-Methoxy-5-methyl-pyridin-3-yl)-5,6,7,8-tetrahydro-pyrido[4,3-d]pyrimidin-4-yloxy]-pyrrolidin-1-yl}-(tetrahydro-pyran-4-yl)-methanone] |  |  | 50 | 327 | 211

The remaining lines, values ahead:

Row | IC50 (PI3K delta) [nM] | IC50 (PI3K alpha) [nM] | IC50 (TLR9 [1]) [nM] | IC50 (TLR9 [2]) [nM] | IC50 (TLR9 [3]) [nM] | SMILES
4 | 8.62 | 589 |  |  |  | CC(=O)N1CCN(C(=O)c2cccc(-c3ncnc4ccc(-c5ccc(C)nc5)cc34)c2)CC1 [6′]
5 | 10 | 1400 |  |  |  | COc1ccc(-c2ccc3ncnc(-c4cccc(C(=O)N5CCN(C(C)=O)CC5)c4)c3c2)cc1C(F)(F)F [9′]
6 | 11.5 | 790 |  |  |  | COc1ccc(-c2ccc3ncnc(-c4cccc(C(=O)N5CCN(C)CC5)c4)c3c2)cc1S(=O)(=O)N1CCCC1 [22′, (3-{6-[4-Methoxy-3-(pyrrolidine-1-sulfonyl)-phenyl]-quinazolin-4-yl}-phenyl)-(4-methyl-piperazin-1-yl)-methanone]
7 | 10 | 640 |  |  |  | CC1(C)CN(C(=O)c2cncc(-c3ncnc4ccc(-c5cnc(N)nc5)cc34)c2)CCO1 [65′]
